From patent US8383637B2, “2-amino-quinazoline derivatives useful as inhibitors of β-secretase (BACE)” (Jansssen Pharmaceutica N.V., priority 2004, dated 2013)
“And” between values parts separate entries of the source, which are not always exact repeats. Equal entries are not always repeated. Where two headings read alike, the source gives them in different places.

Experiments:
β-secretase(BACE) [1] = biological target: T1, β-secretase(BACE) (Homo sapiens, UniProt P56817); assay: BACE Assay-2 (FS1 substrate, IC50 and Ki); type: biochemical; settings: procedure of Example 159, FS1 substrate; read-out: Ki μM (159)
T1 construct: purchased Panvera
Experimental: The FS1-substrate stock solution was prepared in DMSO as a 10 mg/mL solution. The FS1-substrate working solution was prepared by diluting the 10 mg/mL stock solution with substrate assay buffer to a final concentration of 300 μg/mL. The β-secretase (BACE) working solution was prepared by diluting a 0.83 mg/mL BACE stock solution with enzyme assay buffer to a final concentration of 4 μg/mL.
Test compounds were dissolved in DMSO at 10 mM.
The procedure for this assay was as follows: 15 μL of BACE working solution was pipetted into each well of a 96-well plate. To each well was then pipetted 2 μL of test compound at the selected concentration. Test compound and BACE were then mixed with a pipettor and incubated for 20 min at room temperature. To each well was then added 10 μL of the FS1 substrate working solution.
The procedure for the positive control was as follows: 15 μL of BACE working solution was pipetted into each well to be used as a positive control. To each well was then pipetted 2 μL of vehicle. Vehicle and BACE were then mixed with a pipettor and incubated for 20 min at room temperature. To each well was then added 10 μL of the FS1 substrate working solution.
For test compounds, measured at multiple concentrations, the measured T0 and T60 values were used to calculate an IC50 value using Graphpad Software (or PIR). For test compounds, Ki inhibition was determined as follows: For each compound concentration and positive control, rate of cleavage of substrate (Vi, where i=compound concentration in μM) was determined as Δ Fluorescence/Δ time (min). Cleavage rates (Vi) were plotted as a function of inhibitor concentration in μM [I]. The Ki was then determined by fitting the following equation to the graph of [I] vs Vi Y=aVmax/(50+24*(1+X/Ki)),

β-secretase(BACE) [2] = biological target: T1, β-secretase(BACE); assay: BACE FS1% Inhibition Assay; type: biochemical; settings: FS1 substrate
Method in brief: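 Human BACE (4 μg/mL working solution) preincubated 20 min at room temperature with compound, then FS1 substrate (300 μg/mL working solution) added and incubated 1 h at room temperature. Percent inhibition calculated at each compound concentration against blank and vehicle controls.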

[3] = 0.3 μM test compound, read-out: % Inhibition (FS) 0.3 μM
[4] = 1 μM test compound, read-out: % Inhibition (FS) 1 μM
[5] = 3 μM test compound, read-out: % Inhibition (FS) 3 μM
[6] = 0.3 μM test compound, read-out: % Inhibition (FS)
[7] = 1 μM test compound, read-out: % Inhibition (FS)
[8] = 3 μM test compound, read-out: % Inhibition (FS)

T1 sequence (P56817 46-501): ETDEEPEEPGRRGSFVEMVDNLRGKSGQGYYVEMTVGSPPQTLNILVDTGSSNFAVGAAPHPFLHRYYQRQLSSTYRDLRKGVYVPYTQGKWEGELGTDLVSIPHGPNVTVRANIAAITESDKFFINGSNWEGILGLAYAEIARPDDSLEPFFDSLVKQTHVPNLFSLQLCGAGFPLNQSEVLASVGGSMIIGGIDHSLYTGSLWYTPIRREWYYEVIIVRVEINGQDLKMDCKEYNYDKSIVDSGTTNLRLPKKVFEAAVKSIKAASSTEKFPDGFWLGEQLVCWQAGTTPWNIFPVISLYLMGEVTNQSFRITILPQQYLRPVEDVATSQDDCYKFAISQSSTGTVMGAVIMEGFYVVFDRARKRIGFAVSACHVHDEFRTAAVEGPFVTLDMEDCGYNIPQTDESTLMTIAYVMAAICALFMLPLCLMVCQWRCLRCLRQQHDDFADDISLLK

Ki (β-secretase(BACE) [1]) [µM]	inhibition at 0.3 µM (β-secretase(BACE) [2]; [3]) [%]	inhibition at 1 µM (β-secretase(BACE) [2]; [4]) [%]	inhibition at 3 µM (β-secretase(BACE) [2]; [5]) [%]	SMILES	further results
0.14	55	77	118	COc1cccc(F)c1-c1ccc2c(c1)CN(CCNC(=O)C1CCCCC1)C(N)=N2 [Compound 545]	–
0.13	< 30	72	102	NC1=Nc2ccc(-c3c(F)cccc3F)cc2CN1CCNC(=O)C1CCCCC1 [Compound 629]	–
0.15	31	74	113	CN(C(=O)c1ccnc(CN2Cc3cc(Oc4ccccc4)ccc3N=C2N)c1)C1CCCCC1 [Compound 508, 2-(2-Amino-6-phenoxy-4H-quinazolin-3-ylmethyl)-N-cyclohexyl-N-methyl-isonicotinamide]	–
0.81	< 30	–	60	CN(C(=O)c1cccc(CN2Cc3cc(-c4ccccc4S(=O)(=O)NC(C)(C)C)ccc3N=C2N)c1)C1CCCCC1 [Compound 158]	% Inhibition (FS) 0.3 μM (β-secretase(BACE) [2]; 0.3 μM test compound): <30%; % Inhibition (FS) 1 μM (β-secretase(BACE) [2]; 1 μM test compound, 1 µM): <30% and 53%; % Inhibition (FS) 3 μM (β-secretase(BACE) [2]; 3 μM test compound, 3 µM): 79%
1.04	< 30	54	85	CC(C)N(C(=O)CCN1Cc2cc(Oc3ccccc3)ccc2N=C1N)C1CCCCC1 [Compound 179]	–
0.86	< 30	41	84	CN(C(=O)c1cccc(CN2Cc3cc(Nc4ccccc4)ccc3N=C2N)c1)C1CCCCC1 [Compound 432]	–
0.52	< 30	55	87	CN(C(=O)c1cccc(CN2Cc3cc(-c4ccccc4OC(F)(F)F)ccc3N=C2N)c1)C1CCCCC1 [Compound 324]	–
0.65	< 30	< 30	71	CN(C(=O)c1cccc(CN2Cc3cc(-c4ccccc4C(F)(F)F)ccc3N=C2N)c1)C1CCCCC1 [Compound 268]	–
0.27	< 30	54	95	NC1=Nc2ccc(-c3cccc(Cl)c3)cc2CN1CCNC(=O)C1CCCCC1 [Compound 625]	–
0.041	83	106	125	Cc1ccccc1-c1ccc2c(c1)CN(CCNC(=O)C1CCCCC1)C(N)=N2 [Compound 537]	–
0.56	< 30	80	102	CN(C(=O)CCCN1Cc2cc(Oc3ccccc3)ccc2N=C1N)C1CCCCC1 [Compound 177]	–
0.16	39	75	105	Cc1cccc(-c2ccc3c(c2)CN(CCNC(=O)C2CCCCC2)C(N)=N3)c1 [Compound 627]	–
0.4	< 30	50	94	CN(C(=O)c1ccc(CN2Cc3cc(Oc4ccccc4)ccc3N=C2N)o1)C1CCCCC1 [Compound 424, 5-(2-Amino-6-phenoxy-4H-quinazolin-3-ylmethyl)-furan-2-carboxylic acid cyclohexyl-methyl-amide]	–

Second part, the compound before the results:

SMILES	Ki (β-secretase(BACE) [1]) [µM]	inhibition at 0.3 µM (β-secretase(BACE) [2]; [3]) [%]	inhibition at 1 µM (β-secretase(BACE) [2]; [4]) [%]	inhibition at 3 µM (β-secretase(BACE) [2]; [5]) [%]	further results
CC(C)CN(CC(C)C)C(=O)c1cccc(CN2Cc3cc(Oc4ccccc4)ccc3N=C2N)c1 [Compound 211]	0.69	< 30	< 30	68	–
NC1=Nc2ccc(Oc3ccccc3)cc2CN1[C@@H](CCC(=O)N(Cc1nnn[nH]1)C1CCCCC1)C1CCCCC1 [Compound 787, 4-(2-Amino-6-phenoxy-4H-quinazolin-3-yl)-4S,N-dicyclohexyl-N-(1H-tetrazol-5-ylmethyl)-butyramide]	0.038	–	–	–	inhibition at 0.3 µM (β-secretase(BACE) [2]; [6]): 108%; inhibition at 1 µM (β-secretase(BACE) [2]; [7]): 109%; inhibition at 3 µM (β-secretase(BACE) [2]; [8]): 121%
CCC(c1cccc(C(=O)N(C2CCCCC2)C2CCCCC2)c1)N1Cc2cc(-c3ccccc3OC)ccc2N=C1N (stereo not drawn) [Compound 418]	0.035	54	89	119	–
NC1=Nc2ccc(Oc3ccccc3)cc2CN1[C@@H](CCC(=O)N(CCO)[C@H]1CC[C@@H](C(=O)O)CC1)C1CCCCC1 [Compound 749, (S)-Enantiomer of 4-cis-[[4-(2-Amino-6-phenoxy-4H-quinazolin-3-yl)-4-cyclohexyl-butyryl]-(2-hydroxy-ethyl)-amino]-cyclohexanecarboxylic acid]	0.017	–	–	–	inhibition at 0.3 µM (β-secretase(BACE) [2]; [6]): 113%; inhibition at 1 µM (β-secretase(BACE) [2]; [7]): 112%; inhibition at 3 µM (β-secretase(BACE) [2]; [8]): 115%
CONC1=Nc2ccc(-c3ccccc3OC)cc2CN1Cc1cccc(C(=O)N(C)C2CCCCC2)c1 [Compound 605, N-Cyclohexyl-3-[2-methoxyamino-6-(2-methoxy-phenyl)-4H-quinazolin-3-ylmethyl]-N-methyl-benzamide]	0.54	47	72	111	–
CN(C(=O)CC[C@@H](C1CCCCC1)N1Cc2cc(Oc3ccccc3)ccc2N=C1N)C1CCOCC1 [Compound 638]	0.23	74	101	116	–
COC(=O)[C@H]1CC[C@@H](N(C)C(=O)CC[C@@H](C2CCOCC2)N2Cc3cc(Oc4ccccc4)ccc3N=C2N)CC1 [Compound 744]	0.031	–	–	–	inhibition at 0.3 µM (β-secretase(BACE) [2]; [6]): 91%; inhibition at 1 µM (β-secretase(BACE) [2]; [7]): 108%; inhibition at 3 µM (β-secretase(BACE) [2]; [8]): 112%
COC(=O)[C@H]1CC[C@@H](N(CCO)C(=O)CC[C@@H](C2CCCCC2)N2Cc3cc(Oc4ccccc4)ccc3N=C2N)CC1 [Compound 762]	0.111	–	–	–	inhibition at 0.3 µM (β-secretase(BACE) [2]; [6]): 74%; inhibition at 1 µM (β-secretase(BACE) [2]; [7]): 102%; inhibition at 3 µM (β-secretase(BACE) [2]; [8]): 113%
CC(C)(C)OC[C@@H](NC(=O)CC[C@@H](C1CCOCC1)N1Cc2cc(Oc3ccccc3)ccc2N=C1N)C(=O)O [Compound 774, 2-[4-(2-Amino-6-phenoxy-4H-quinazolin-3-yl)-4S-(tetrahydro-pyran-4-yl)-butyrylamino]-3R-tert-butoxy-propionic acid]	0.003	–	–	–	inhibition at 0.3 µM (β-secretase(BACE) [2]; [6]): 122%; inhibition at 1 µM (β-secretase(BACE) [2]; [7]): 120%; inhibition at 3 µM (β-secretase(BACE) [2]; [8]): 124%
CN(C(=O)CC[C@@H]([C@H]1CC[C@@H](O)CC1)N1Cc2cc(Oc3ccccc3)ccc2N=C1N)C1CCCCC1 [Compound 731, 4-(2-Amino-6-phenoxy-4H-quinazolin-3-yl)-N-cyclohexyl-4-(cis-4-hydroxy-cyclohexyl)-N-methyl-butyramide]	0.087	–	–	–	inhibition at 0.3 µM (β-secretase(BACE) [2]; [6]): 56%; inhibition at 1 µM (β-secretase(BACE) [2]; [7]): 114%; inhibition at 3 µM (β-secretase(BACE) [2]; [8]): 132%
CN(C(=O)CC[C@@H](C(=O)N(C)C1CCCCC1)N1Cc2cc(Oc3ccccc3)ccc2N=C1N)C1CCCCC1 [Compound 634, (S)-enantiomer of 2-(2-Amino-6-phenoxy-4H-quinazolin-3-yl)-pentanedioic acid bis-(cyclohexyl-methyl-amide)]	0.054	46	88	114	–
COc1ccccc1-c1ccc2c(c1)CN([C@@H](CCC(=O)N(C)CCc1ccccc1)C1CCCCC1)C(N)=N2 [Compound 721, 4-[2-Amino-6-(2-methoxy-phenyl)-4H-quinazolin-3-yl]-4-(S)-cyclohexyl-N-methyl-N-phenethyl-butyramide]	0.22	–	–	–	inhibition at 0.3 µM (β-secretase(BACE) [2]; [6]): 60%; inhibition at 1 µM (β-secretase(BACE) [2]; [7]): 66%; inhibition at 3 µM (β-secretase(BACE) [2]; [8]): 127%
CN(C(=O)CCC(C1CCCCC1)N1Cc2cc(Oc3ccccc3)ccc2N=C1N)c1ccc(C(=O)O)cc1 (stereo not drawn) [Compound 766]	–	–	–	–	% Inhibition (FS) (β-secretase(BACE) [2]; 0.3 μM test compound): <30%; % Inhibition (FS) (β-secretase(BACE) [2]; 1 μM test compound): <30%; % Inhibition (FS) (β-secretase(BACE) [2]; 3 μM test compound): <30%
COc1cccc(COc2ccc3c(c2)CN(Cc2cccc(C(=O)N(C)C4CCCCC4)c2)C(N)=N3)c1 [Compound 514]	–	–	–	–	% Inhibition (FS) 0.3 μM (β-secretase(BACE) [2]; 0.3 μM test compound): <30%; % Inhibition (FS) 1 μM (β-secretase(BACE) [2]; 1 μM test compound): <30%; % Inhibition (FS) 3 μM (β-secretase(BACE) [2]; 3 μM test compound): <30%
CC(C)(C)OC(=O)NCc1cccc(CN2Cc3cc(Oc4ccccc4)ccc3N=C2N)c1 [Compound 315]	–	–	–	–	% Inhibition (FS) 0.3 μM (β-secretase(BACE) [2]; 0.3 μM test compound): <30%; % Inhibition (FS) 1 μM (β-secretase(BACE) [2]; 1 μM test compound): <30%; % Inhibition (FS) 3 μM (β-secretase(BACE) [2]; 3 μM test compound): 33%
CCCC=Cc1ccc2c(c1)CN(CCNC(=O)Cc1ccccc1)C(N)=N2 [Compound 596]	–	–	–	–	% Inhibition (FS) 0.3 μM (β-secretase(BACE) [2]; 0.3 μM test compound): <30%; % Inhibition (FS) 1 μM (β-secretase(BACE) [2]; 1 μM test compound): <30%; % Inhibition (FS) 3 μM (β-secretase(BACE) [2]; 3 μM test compound): <30%
